# Experimental data reported in patent US6855730B2, “3-methylidenyl-2-indolinone modulators of protein kinase” (Sugen, Inc., priority 1998, dated 2005).
# Biological target: EGFR (Homo sapiens, UniProt P00533)
# Assay: EGFR assay (cellular ELISA, NIH 3T3/C7 cells)
# Format: cell-based
# Design: expressed in transfected cells; host or cells: NIH 3T3/C7
# Conditions: read-out: cell EGF IC50
# Protocol: EGF Receptor kinase activity in cells genetically engineered to express human EGF-R can be measured as described below:
# Materials and Reagents. • a. […] 05-101 (UBI) (a monoclonal antibody recognizing an EGFR extracellular domain). • c. Anti-phosphotyosine antibody (anti-Ptyr) (polyclonal). • d. Detection antibody: Goat anti-rabbit IgG horse radish peroxidase conjugate, TAGO, Inc. Burlingame, Calif. • e. TBST buffer:
# • Keep solution in dark at 4° C. until used. • h. Stock reagents of:
# Pre-coat ELISA Plate • 1. […] Coated plates are good for up to 10 days when stored at 4° C. • 2. On day-of use, remove coating buffer and replace with blocking buffer (5% Carnation Instant NonFat Dry Milk in PBS). Incubate the plate, shaking, at room temperature (about 23° C. to 25° C.) for 30 minutes. Just prior to use, remove blocking buffer and wash plate 4 times with TBST buffer.
# Seeding Cells • 1. […] Choose dishes having 80-90% confluence for the experiment. Trypsinize cells and stop reaction by adding 10% CS DMEM medium. Suspend cells in DMEM medium (10% CS DMEM medium) and centrifuge once at 1000 rpm at room temperature for 5 minutes. • 3. Resuspend cells in seeding medium (DMEM, 0.5% bovine serum), and count the cells using trypan blue. Viability above 90% is acceptable. Seed cells in DMEM medium (0.5% bovine serum) at a density of 10,000 cells per well, 100 μl per well, in a 96 well microtiter plate. Incubate seeded cells in 5% CO2 at 37° C. for about 40 hours.
# Assay Procedures. • 1. Check seeded cells for contamination using an inverted microscope. Dilute test compounds stock (10 mg/ml in DMSO) 1:10 in DMEM medium, then transfer 5 μl to a test well for a test compounds drug dilution of 1:200 and a final DMSO concentration of 1%. Control wells receive DMSO alone. Incubate in 5% CO2 at 37° C. for one hour. • 2. Prepare EGF ligand: dilute stock EGF in DMEM so that upon transfer of 10 μl dilute EGF (1:12 dilution), 25 nM final concentration is attained. • 3. Prepare fresh 10 ml HNTG* sufficient for 100 μl per well wherein HNTG* comprises: HNTG stock (2.0 ml), milli-Q H2O (7.3 ml), EDTA, 100 mM, pH 7.0 (0.5 ml), Na3VO4 0.5 M (0.1 ml) and Na4(P2O7), 0.2 M (0.1 ml). • 4. Place on ice. • 5. After two hours incubation with drug, add prepared EGF ligand to cells, 10 μl per well, to yield a final concentration of 25 nM. Control wells receive DMEM alone. Incubate, shaking, at room temperature, for 5 minutes. • 6. Remove test compound, EGF, and DMEM. Wash cells twice with PBS. Transfer HNTG* to cells, 100 μl per well. Place on ice for 5 minutes. Meanwhile, remove blocking buffer from other ELISA plate and wash with TBST as described above. • 7. With a pipette tip securely fitted to a micropipettor, scrape cells from plate and homogenize cell material by repeatedly aspirating and dispensing the HNTG* lysis buffer. Transfer lysate to a coated, blocked, and washed ELISA plate. Incubate shaking at room temperature for one hour. • 8. Remove lysate and wash 4 times with TBST. Transfer freshly diluted anti-Ptyr antibody to ELISA plate at 100 μl per well. Incubate shaking at room temperature for 30 minutes in the presence of the anti-Ptyr antiserum (1:3000 dilution in TBST). • 9. Remove the anti-Ptyr antibody and wash 4 times with TBST. Transfer the freshly diluted TAGO 30 anti-rabbit IgG antibody to the ELISA plate at 100 μl per well. Incubate shaking at room temperature for 30 minutes (anti-rabbit IgG antibody: 1:3000 dilution in TBST). • 10. Remove detection antibody and wash 4 times with TBST. Transfer freshly prepared ABTS/H2O2 solution to ELISA plate, 100 μl per well. Incubate at room temperature for 20 minutes. ABTS/H2O2 solution: 1.2 μl 30% H2O2 in 10 ml ABTS stock. • 11. Stop reaction by adding 50 μl 5N H2SO4 (optional), and determine O.D. at 410 nm. • 12. The maximal phosphotyrosine signal is determined by subtracting the value of the negative controls from the positive controls. […]
# EGFR, sequence (P00533 25-1210): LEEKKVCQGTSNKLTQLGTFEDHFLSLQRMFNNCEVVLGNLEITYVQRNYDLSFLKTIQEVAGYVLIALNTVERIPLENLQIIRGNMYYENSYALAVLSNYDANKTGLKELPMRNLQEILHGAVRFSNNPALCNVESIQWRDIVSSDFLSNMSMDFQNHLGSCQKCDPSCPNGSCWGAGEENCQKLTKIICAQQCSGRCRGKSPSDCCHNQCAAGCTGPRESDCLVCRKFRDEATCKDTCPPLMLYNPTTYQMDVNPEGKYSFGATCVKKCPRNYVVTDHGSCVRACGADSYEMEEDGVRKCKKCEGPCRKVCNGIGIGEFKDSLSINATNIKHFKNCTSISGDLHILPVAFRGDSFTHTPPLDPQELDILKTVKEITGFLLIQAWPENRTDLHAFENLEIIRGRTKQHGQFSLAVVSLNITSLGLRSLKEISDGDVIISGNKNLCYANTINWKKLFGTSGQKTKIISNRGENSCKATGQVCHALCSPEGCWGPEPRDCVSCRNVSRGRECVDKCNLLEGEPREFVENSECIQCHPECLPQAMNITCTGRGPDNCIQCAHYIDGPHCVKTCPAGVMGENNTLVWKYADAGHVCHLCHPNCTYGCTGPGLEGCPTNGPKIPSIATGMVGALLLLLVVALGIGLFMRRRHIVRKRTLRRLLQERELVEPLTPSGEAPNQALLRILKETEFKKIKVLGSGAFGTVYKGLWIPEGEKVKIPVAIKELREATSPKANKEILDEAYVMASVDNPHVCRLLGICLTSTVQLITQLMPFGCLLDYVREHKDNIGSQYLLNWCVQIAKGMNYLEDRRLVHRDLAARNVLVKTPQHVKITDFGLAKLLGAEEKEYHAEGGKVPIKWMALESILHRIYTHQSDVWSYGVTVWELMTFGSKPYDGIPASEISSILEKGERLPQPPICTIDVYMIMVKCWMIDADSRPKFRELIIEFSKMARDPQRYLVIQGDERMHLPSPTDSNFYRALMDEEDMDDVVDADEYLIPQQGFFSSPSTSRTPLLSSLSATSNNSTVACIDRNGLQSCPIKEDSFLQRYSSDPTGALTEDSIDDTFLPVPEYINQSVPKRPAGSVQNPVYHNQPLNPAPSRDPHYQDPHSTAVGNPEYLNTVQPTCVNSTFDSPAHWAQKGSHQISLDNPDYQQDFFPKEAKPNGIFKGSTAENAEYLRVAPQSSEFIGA
row,Structure (SMILES),IC50 [µM]
1,"COc1c(C(C)C)cc(/C=C2/C(=O)Nc3cc(F)ccc32)cc1C(C)C [Example 22, 3-(3,5-Diisopropyl-4-methoxybenzylidene)-6-fluoro-1,3-dihydroindol-2-one]",> 100
2,"Cc1cccc2c1/C(=C/c1cc3ccccc3[nH]1)C(=O)N2 [Example 166, 3-(1H-indol-2-ylmethylene)-4-methyl-1,3-dihydro-indol-2-one]",> 100
3,"COc1ccc(/C=C2/C(=O)Nc3ccccc32)cc1-c1ccsc1 [Example 35, 3-(4-Methoxy-3-thiophen-3-ylbenzylidene)-1,3-dihydroindol-2-one]",> 100
4,"COc1cccc(-c2cc(OC)c(OC)cc2/C=C2/C(=O)Nc3ccc(Cl)cc32)c1 [Example 61, 5-Chloro-3-(4,5-3′-Trimethoxybiphenyl-2-ylmethylene)-1,3-dihydroindol-2-one]",> 100
5,"O=C1Nc2ccc(F)cc2/C1=C\c1ccc2c(c1)CCO2 [Example 42, 3-(2,3-Dihydrobenzofuran-5-ylmethylene)-5-fluoro-1,3-dihydroindol-2-one]",> 100
6,"COc1ccc(/C=C2/C(=O)Nc3ncccc32)cc1C1CCCC1 [Example 47, 3-(3-Cyclopentyl-4-methoxybenzylidene)-1,3-dihydropyrrolo[2,3-b]pyridin-2-one]",> 100
7,"CCOc1cccc(-c2cc(C=C3C(=O)Nc4ccccc43)ccc2OC)c1 [Example 46, 3-(3′-Ethoxy-6-methoxybiphenyl-3-ylmethylene)-1,3-dihydroindol-2-one]",> 100
8,"COc1c(C)cc(/C=C2/C(=O)Nc3ncccc32)cc1C [Example 56, 3-(4-Methoxy-3,5-dimethylbenzylidene)-1,3-dihydropyrrolo[2,3-b]pyridin-2-one]",> 100
9,"Cc1cc(CCC(=O)O)c(/C=C2\C(=O)Nc3cc(-c4ccc(F)cc4)ccc32)[nH]1 [Example 107, 3-{2-[6-(4-Fluorophenyl)-2-oxo-1,2-dihydroindol-3-ylidenemethyl]-5-methyl-1H-pyrrol-3-yl}propionic acid]",> 100
10,COc1ccc(/C=C2/C(=O)Nc3ccc(Cl)cc32)cc1-c1cccnc1 [Example 60],> 100
11,"O=C1Nc2ccc(Cl)cc2/C1=C\c1ccc2c(c1)CCO2 [Example 14, 5-Chloro-3-(2,3-dihydro-benzofuran-5-ylmethylene)-1,3-dihydroindol-2-one]",> 100
12,"COc1ccc(C=C2C(=O)Nc3ccccc32)cc1-c1cccc(NC(C)=O)c1 [Example 29, N-[2′-Methoxy-5′-(2-oxo-1,2-dihydroindol-3-ylidenemethyl)-biphenyl-3-yl]-acetamide]",> 100
13,"CCc1ccc2c(c1)/C(=C\c1cc(C(C)C)c(OC)c(C(C)C)c1)C(=O)N2 [Example 28, 3-(3,5-Diisopropyl-4-methoxbenzylidene)-5-ethyl-1,3-dihydroindol-2-one]",> 100
14,"COc1c(C(C)C)cc(/C=C2/C(=O)Nc3ncccc32)cc1C(C)C [Example 74, 3-(3,5-Diisopropyl-4-methoxybenzylidene)-1,3-dihydropyrrolo[2,3-b]pyridin-2-one]",> 100
15,"COc1ccc(/C=C2/C(=O)Nc3ncccc32)cc1C1CCCCC1 [Example 72, 3-(3-Cyclohexyl-4-methoxybenzylidene)-1,3-dihydropyrrolo[2,3-b]pyridin-2-one]",> 100
16,"COc1ccc(/C=C2/C(=O)Nc3ncccc32)cc1-c1ccccc1 [Example 71, 3-(6-Methoxybiphenyl-3-ylmethylene)-1,3-dihydropyrrolo[2,3-b]pyridin-2-one]",> 100
17,"COc1cc(/C=C2/C(=O)Nc3ccccc32)c(-c2cccs2)cc1OC [Example 39, 3-(4,5-Dimethoxy-2-thiophen-2-ylbenzylidene)-1,3-dihydroindol-2-one]",> 100
18,"COc1ccc(/C=C2/C(=O)Nc3ccc(Cl)cc32)cc1C1CCCCC1 [Example 51, 5-Chloro-3-(3-cyclohexyl-4-methoxybenzylidene)-1,3-dihydroindol-2-one]",> 100
19,"COc1ccc(/C=C2/C(=O)Nc3ncccc32)cc1C(C)C [Example 70, 3-(3-Isopropyl-4-methoxybenzylidene)-1,3-dihydropyrrolo[2,3-b]pyridine-2-one]",> 100
20,"Cc1cc(CCC(=O)O)c(/C=C2\C(=O)Nc3ccc(Cl)cc32)[nH]1 [Example 111, 3-[2-(5-Chloro-2-oxo-1,2-dihydroindol-3-ylidenemethyl)-5-methyl-1H-pyrrol-3-yl]propionic acid]",> 100

# Next, values leading:
row,IC50 [µM],Structure (SMILES)
1,> 100,"COc1ccc2c(c1)NC(=O)/C2=C/c1ccc(OC)c(-c2ccsc2)c1 [Example 64, 6-Methoxy-3-(4-methoxy-3-thiophen-3-ylbenzylidene)-1,3-dihydroindol-2-one]"
2,> 100,"CCOC(=O)c1c(C)[nH]c(/C=C2\C(=O)Nc3cc(-c4ccc(F)cc4)ccc32)c1CCC(=O)O [Example 108, 4-(2-Carboxyethyl)-5-[6-(4-fluorophenyl)-2-oxo-1,2-dihydro-indol-3-ylidenemethyl]-2-methyl-1H-pyrrole-3-carboxylic acid ethyl ester]"
3,78.4,"CC(=O)Nc1ccc2c(c1)NC(=O)/C2=C/c1ccc(OCCN2CCOCC2)c(C(C)(C)C)c1 [Example 55, N-{3-[3-tert-Butyl-4-(2-morpholin-4-ylethoxy)-benzylidene]-2-oxo-2,3-dihydro-1H-indol-6-yl}-acetamide]"
4,30.8,"COc1ccc(/C=C2/C(=O)Nc3ccc(Br)cc32)cc1-c1ccccc1 [Example 13, 5-Bromo-3-(6-methoxybiphenyl-3-ylmethylene)-1,3-dihydroindol-2-one]"
5,> 50,"O=C1Nc2ncccc2/C1=C\c1ccc2c(c1)CCO2 [Example 73, 3-(2,3-Dihydrobenzofuran-5-ylmethylene)-1,3-dihydropyrrolo[2,3-b]pyridin-2-one]"
6,34.6,"COc1cc(C)c(C=C2C(=O)Nc3ccc(Cl)cc32)cc1C(C)C [Example 9, 5-Chloro-3-(5-isopropyl-4-methoxy-2-methylbenzylidene)-1,3-dihydroindol-2-one]"
7,20.1,"COc1c(C(C)C)cc(/C=C2/C(=O)Nc3cc(O)ccc32)cc1C(C)C [Example 4, 3-(3,5-Diisopropyl-4-methoxybenzylidene)-6-hydroxy-1,3-dihydroindol-2-one]"
8,85,"COc1c(C(C)C)cc(/C=C2\C(=O)Nc3cccc(C)c32)cc1C(C)C [Example 53, 3-(3,5-Diisopropyl-4-methoxybenzylidene)-4-methyl-1,3-dihydroindol-2-one]"
9,79,"CC(=O)Nc1ccc2c(c1)NC(=O)/C2=C/c1ccc(OCCN2CCOCC2)c(-c2cccs2)c1 [Example 40, N-{3-[4-(2-Morpholin-4-ylethoxy)-3-thiophen-2-ylbenzylidene]-2-oxo-2,3-dihydro-1H-indol-6-yl}-acetamide]"
10,18.5,"COc1c(C)cc(/C=C2/C(=O)Nc3ccc(Cl)cc32)cc1C [Example 21, 5-Chloro-3-(4-methoxy-3,5-dimethylbenzylidene)-1,3-dihydroindol-2-one]"
11,68,"COc1ccc2c(c1)/C(=C\c1cc(C(C)C)c(OC)c(C(C)C)c1)C(=O)N2 [Example 17, 3-(3,5-Diisopropyl-4-methoxybenzylidene)-5-methoxy-1,3-dihydroindol-2-one]"
